Earlier results as cited in patent US6417349B1, “Water-soluble extract of asiaticoside and madecassoside from Centella asiatica and isolating method thereof” (priority 1997, dated 2002).

Details: prior-art components

solubility in water | SMILES
water-insoluble | C[C@H]1[C@H](C)CC[C@]2(C(=O)O)CC[C@]3(C)C(=CC[C@@H]4[C@@]5(C)C[C@@H](O)[C@H](O)[C@@](C)(CO)[C@@H]5[C@H](O)C[C@]43C)[C@H]12 [madecassic acid]
water-insoluble | C[C@H]1[C@H](C)CC[C@]2(C(=O)O)CC[C@]3(C)C(=CC[C@@H]4[C@@]5(C)C[C@@H](O)[C@H](O)[C@@](C)(CO)[C@@H]5CC[C@]43C)[C@H]12 [asiatic acid]
water-insoluble | CC1CCC2(C(=O)O)CCC3(C)C(=CCC4C5(C)CC(O)C(O)C(C)(C)C5C(O)CC43C)C2C1C (stereo not drawn) [madasiatic acid]
